Reference: ChEMBL document CHEMBL4431311, “Endothelin-Receptor Antagonists beyond Pulmonary Arterial Hypertension: Cancer and Fibrosis” (J Med Chem, 2016)
One block for each compound: values may come before it.

Assays:
Endothelin-1 receptor [1] = target: T1, Endothelin-1 receptor (Homo sapiens, UniProt P25101); assay: Displacement of [125I]ET-1 from human ET-A receptor expressed in CHO cell membrane incubated for 2 hrs; type: cell membranes
T1 sequence (P25101 whole entry): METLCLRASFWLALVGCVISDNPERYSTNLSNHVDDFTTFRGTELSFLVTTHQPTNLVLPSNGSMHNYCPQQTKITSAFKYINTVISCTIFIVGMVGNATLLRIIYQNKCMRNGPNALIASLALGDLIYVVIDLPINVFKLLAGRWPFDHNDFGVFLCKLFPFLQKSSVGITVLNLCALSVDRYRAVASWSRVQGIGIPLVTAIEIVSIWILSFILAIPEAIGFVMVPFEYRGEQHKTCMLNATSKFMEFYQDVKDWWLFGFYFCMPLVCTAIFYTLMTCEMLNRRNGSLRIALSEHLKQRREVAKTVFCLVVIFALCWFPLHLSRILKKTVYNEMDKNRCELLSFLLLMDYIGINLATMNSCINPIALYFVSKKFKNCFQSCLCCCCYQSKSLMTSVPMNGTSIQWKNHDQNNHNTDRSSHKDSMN

[2] = target: T2, Endothelin-1 receptor (Homo sapiens) (UniProt P25101); assay: Binding affinity to ET-A receptor (unknown origin) assessed as dissociation half life
T2 sequence (whole entry): T1 sequence (P25101 whole entry)

Endothelin-1 receptor [3] = target: T1, Endothelin-1 receptor; assay: Displacement of [125I]ET-1 from ET-A receptor in human SK-N-MC cells incubated for 4 hrs by gamma counting method; type: cell-based
[4] = target: T3, Endothelin receptor type B (Homo sapiens, UniProt P24530); assay: Displacement of [125I]ET-1 from ET-B receptor in human Girardi heart cells incubated for 4 hrs by gamma counting method; type: cell-based
T3 sequence (P24530 whole entry): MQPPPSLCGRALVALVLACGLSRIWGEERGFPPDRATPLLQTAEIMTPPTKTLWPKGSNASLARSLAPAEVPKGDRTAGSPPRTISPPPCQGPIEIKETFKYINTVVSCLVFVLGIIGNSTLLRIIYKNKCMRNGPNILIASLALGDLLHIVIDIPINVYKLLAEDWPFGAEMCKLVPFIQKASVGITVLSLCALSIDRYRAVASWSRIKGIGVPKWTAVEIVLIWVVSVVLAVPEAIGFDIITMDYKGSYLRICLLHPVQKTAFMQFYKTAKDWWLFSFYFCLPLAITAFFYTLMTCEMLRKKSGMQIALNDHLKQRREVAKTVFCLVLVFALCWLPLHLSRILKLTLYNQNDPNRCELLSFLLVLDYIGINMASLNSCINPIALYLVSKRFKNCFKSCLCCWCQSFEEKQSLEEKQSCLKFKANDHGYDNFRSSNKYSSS

IC50 (Endothelin-1 receptor [1]): 94 nM
SMILES: Cc1cc(C)cc(C(=O)N(C)[C@H](Cc2ccc(-c3ccccc3)cc2)C(=O)N[C@@H](Cc2c[nH]c3ccccc23)C(=O)O)c1

T1/2 [2]: 1 min
SMILES: COc1ccccc1Oc1c(NS(=O)(=O)c2ccc(C(C)(C)C)cc2)nc(-c2ncccn2)nc1OCCO

IC50 (Endothelin-1 receptor [3]): 1300 nM
IC50 [4]: 1.2 nM
SMILES: CCCC[C@H](NC(=O)[C@@H](Cc1cn(C(=O)OC)c2ccccc12)NC(=O)[C@@H](CC(C)(C)C)NC(=O)N1[C@H](C)CCC[C@@H]1C)C(=O)O
